{"source": "patent US8648100B2", "about": "“Roflumilast for the treatment of pulmonary hypertension” (Takeda GmbH, priority 2005, dated 2014)", "type_in_all_cases": "in vivo, adult male Wistar rats", "key": {"[1]": {"test_system": "monocrotaline (MCT)-induced pulmonary arterial hypertension in rats (curative approach)", "assay": "Monocrotaline (MCT)-induced pulmonary hypertension in rats, curative approach (treatment day 21 to day 42)", "experimental": "(§1) Rats were randomly assigned to three groups (8-10 animals in each group): two groups received Roflumilast 0.5 and 1.5 mg kg^−1 d^−1, respectively; and one group received vehicle. In the preventive treatment paradigm Roflumilast or vehicle were given once daily by gavage for 21 days starting immediately after a single subcutaneous injection of MCT (60 mg kg^−1). A group not receiving MCT served as control. In a curative approach rats were left untreated for 21 days following MCT (60 mg/kg s.c.) and than randomly divided into two groups, one received roflumilast (1.5 mg/kg/d) p.o. and the other vehicle, from day 21 to day 42.\n(§2) At the end of the treatment period rats were anaethesized with sodium pentobarbital (60 mg/kg, i.p.). A polyvinyl catheter was introduced into the right jugular vein and pushed through the right ventricle into the pulmonary artery. Another polyethylene catheter was inserted into the right carotid artery. After measurement of pulmonary (PAP) and systemic arterial pressures (SAP), the thorax was opened and the left lung immediately removed and frozen in liquid nitrogen. The heart was dissected and weighed for calculation of the right ventricular hypertrophy index (ratio of right ventricular free wall weight over sum of septum plus left ventricular free wall weight; RV/LV+S). The right lung was fixed in the distended state with formalin buffer. After routine processing and paraffin embedding, multiple sections from each lobe were stained with haemotoxylin and eosin. In each rat, 60 intraacinar arteries were analyzed and categorized as muscular (fully or partially) or nonmuscular to assess the degree of muscularization. In addition, intraacinar fully muscularized arteries were evaluated for measurements of medial wall thickness which was calculated and expressed as follows: index (%)=(External diameter−internal diameter)/External diameter×100%.\n(§3) The data are expressed as means±SEM. A nonparametric Mann-Whitney test was used for comparisons between two groups. Comparisons of data at various times after MCT injection or of various treatment groups were performed using a nonparametric Kruskal-Wallis test followed by Dunn's test when significant. To compare the degree of pulmonary vessels muscularization between groups, we used a non parametric Mann-Whitney or a Kruskal-Wallis test after ordinal classification of the vessels as non muscular, partially muscular, or fully muscular.\nIn a curative approach Roflumilast (1.5 mg/kg/d) p.o. or vehicle were administered beginning at day 21 following MCT i.e. when pulmonary vascular remodeling and consequently augmented PAP and right ventricular hypertrophy were manifest. After another 3 weeks (i.e. at day 42) PAP was measured and rats were sacrificed to assess RV/LV+S ratio and muscularization of distal pulmonary arteries."}, "[2]": {"test_system": "chronic hypoxia-induced pulmonary arterial hypertension in rats", "conditions": "for PAP: mean ± SEM; for RV/LV + S: right ventricular hypertrophy index; for Muscularization: distal pulmonary arteries", "experimental": "(§4) The objective of the pharmacological investigation was to characterize the effect of orally administered Roflumilast at 0.5 mg kg^−1 d^−1 and 1.5 mg kg^−1 d^−1 on the increase in mean PAP and RV/LV+S ratio as well as distal arteriolar muscularization triggered by chronic hypoxia or monocrotalin (MCT) in rats. Hypoxia- or MCT-induced pulmonary hypertension in rats represent widely accepted animal models to study the potential of investigative drugs to reverse chronic pulmonary hypertension based on pulmonary vascular remodelling. In the MCT setting Roflumilast was administered both in preventive and curative paradigms.\n(§5) Experiments were performed with adult male Wistar rats (200-250 g) according to institutional guidelines abiding to national and international regulations.\nRats were exposed to chronic hypoxia (10% O2) in a ventilated chamber (500-liter volume, Flufrance, Cachan, France). To establish the hypoxic environment, the chamber was flushed with a mixture of room air and nitrogen, and the gas was recirculated. The environment within the chamber was monitored using an oxygen analyzer (Oxiquant M, EnviTeC—Wismar, Germany). Carbon dioxide was removed by self-indicating soda lime granules. Excess humidity was prevented by cooling of the recirculation circuit. The chamber temperature was maintained at 22-24° C. The chamber was opened every other day for 1 hour to clean the cages and replenish food and water supplies. Normoxic control rats were kept in the same room with identical light-dark cycle. Rats exposed to chronic hypoxia were randomly assigned to three groups (8-10 animals per group): the first group received Roflumilast at 0.5 mg kg^−1 d^−1, the second group received Roflumilast at 1.5 mg kg^−1 d^−1, the third group received vehicle (methocel). A group not exposed to hypoxia served as control. Roflumilast or vehicle were administered once daily by gavage over 15 days of exposure to hypoxia.\nas §2, §3"}, "[3]": {"test_system": "monocrotaline (MCT)-induced pulmonary arterial hypertension in rats", "assay": "Monocrotaline (MCT)-induced pulmonary hypertension in rats, preventive treatment paradigm", "conditions": "for PAP: mean ± SEM; for Muscularization: distal pulmonary arteries; for RV/LV + S: right ventricular hypertrophy index", "experimental": "as §4, §5, §1, §2, §3"}, "[4]": {"conditions": "Day 42, Roflumilast 1.5 mg/kg/d p.o. starting day 21 after MCT"}, "[5]": {"conditions": "Hypoxia 15 days + 0.5 mg/kg Roflumilast once daily by gavage"}, "[6]": {"conditions": "Hypoxia 15 days + 1.5 mg/kg Roflumilast once daily by gavage"}, "[7]": {"conditions": "MCT + 0.5 mg/kg Roflumilast for 21 days"}, "[8]": {"conditions": "MCT + 1.5 mg/kg Roflumilast for 21 days"}, "[9]": {"conditions": "conclusion for pulmonary hypertension triggered by hypoxia or monocrotaline in rats"}}, "note": "Read-outs that look alike come from different tables or passages of the source.", "data": [{"smiles": "O=C(Nc1c(Cl)cncc1Cl)c1ccc(OC(F)F)c(OCC2CC2)c1", "note": "[Roflumilast, 3-cyclopropyl-methoxy-4-difluoromethoxy-N-(3,5-dichloropyrid-4-yl)benzamide]", "values": [{"measurement": "PAP", "setting": "[1]; [4]", "result": "23.6 ± 0.7", "unit": "mmHg"}, {"measurement": "RV/LV + S", "setting": "[1]; [4]", "result": "33.8 ± 0.9", "unit": "%"}, {"measurement": "Muscularization", "setting": "[1]; Day 42, Roflumilast 1.5 mg/kg/d p.o. starting day 21 after MCT, distal pulmonary arteries", "result": "36.4 ± 2.4", "unit": "%"}, {"measurement": "survival rate (animals alive at day 42)", "setting": "[1]; Roflumilast 1.5 mg/kg/d from day 21, 17 of 24 rats, vehicle 54%", "result": 71, "unit": "%"}, {"measurement": "reduction of the proportion of fully muscularized arterioles", "setting": "[1]; at day 42, Roflumilast 1.5 mg/kg/d from day 21", "result": "> 50", "unit": "%"}, {"measurement": "Medial wall thickness index of the fully muscularized pulmonary arterioles", "setting": "[1]; at day 42, Roflumilast 1.5 mg/kg/d from day 21, vehicle 52±4%", "result": "18±2", "unit": "%"}, {"measurement": "ratio of completely obliterated arterioles", "setting": "[1]; at day 42, Roflumilast 1.5 mg/kg/d from day 21, vehicle 66±3%", "result": "30±5", "unit": "%"}, {"measurement": "PAP", "setting": "[2]; [5]", "result": "28 ± 1.8", "unit": "mm Hg"}, {"measurement": "RV/LV + S", "setting": "[2]; [5]", "result": "37.8 ± 2.3", "unit": "%"}, {"measurement": "Muscularization", "setting": "[2]; Hypoxia 15 days + 0.5 mg/kg Roflumilast", "result": "31.8 ± 2", "unit": "%"}, {"measurement": "PAP", "setting": "[2]; [6]", "result": "25.5 ± 1.8", "unit": "mm Hg"}, {"measurement": "RV/LV + S", "setting": "[2]; [6]", "result": "30.5 ± 0.8", "unit": "%"}, {"measurement": "Muscularization", "setting": "[2]; Hypoxia 15 days + 1.5 mg/kg Roflumilast", "result": "18.5 ± 2", "unit": "%"}, {"measurement": "PAP", "setting": "[3]; MCT 60 mg/kg s.c. + 0.5 mg/kg Roflumilast once daily by gavage for 21 days", "result": "29.3 ± 1.3", "unit": "mm Hg"}, {"measurement": "PAP", "setting": "[3]; MCT 60 mg/kg s.c. + 1.5 mg/kg Roflumilast once daily by gavage for 21 days", "result": "21.4 ± 2.0", "unit": "mm Hg"}, {"measurement": "Muscularization", "setting": "[3]; [7]", "result": "62.7 ± 5.4", "unit": "%"}, {"measurement": "RV/LV + S", "setting": "[3]; [7]", "result": "38.9 ± 1.6", "unit": "%"}, {"measurement": "Muscularization", "setting": "[3]; [8]", "result": "30.3 ± 8.2", "unit": "%"}, {"measurement": "RV/LV + S", "setting": "[3]; [8]", "result": "31.3 ± 1.8", "unit": "%"}, {"measurement": "heart rate", "setting": "[3]; [9]", "result": "unaffected"}, {"measurement": "systemic arterial pressure", "setting": "[3]; [9]", "result": "unaffected"}]}]}
